Results reported in ChEMBL document CHEMBL1201862, “PubChem BioAssay data set” (2004).
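Compound exposure: 48 hours, 5 concentrations, 96-well plates. GI50 = concentration required for 50% inhibition of growth.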 Activity calls are given as the source filed them. Rule as the data show it: active = GI50 up to about 1.1 µM and inactive = higher.

Experiments:
Assay in all cases: NCI anticancer screen, dose series, 48 h
SN12C = tested on: SN12C
RXF 393 = tested on: RXF 393
SF-268 = tested on: SF-268
M14 = tested on: M14
NCI-H226 = tested on: NCI-H226
HCC 2998 = tested on: HCC 2998
DLD-1 = tested on: DLD-1
UACC-62 = tested on: UACC-62
SW-620 = tested on: SW-620
HL-60 = tested on: HL-60
NCI-H460 = tested on: NCI-H460
SK-OV-3 = tested on: SK-OV-3
HOP-92 = tested on: HOP-92
SK-MEL-2 = tested on: SK-MEL-2
OVCAR-4 = tested on: OVCAR-4
EKVX = tested on: EKVX
IGROV-1 = tested on: IGROV-1
CAKI-1 = tested on: CAKI-1
HOP-62 = tested on: HOP-62

Measured: GI50

O=C1C(=Cc2cccs2)C(=O)N(CCc2ccccc2)S(=O)(=O)N1CCc1ccccc1
inactive: SN12C > 50 µM | RXF 393 20.7 µM | SF-268 36.2 µM | M14 > 50 µM | NCI-H226 > 50 µM | HCC 2998 > 50 µM | DLD-1 > 50 µM | UACC-62 > 50 µM | SW-620 > 50 µM | HL-60 14 µM | NCI-H460 > 50 µM | SK-OV-3 > 50 µM | HOP-92 > 50 µM | SK-MEL-2 > 50 µM | OVCAR-4 > 50 µM | EKVX > 50 µM | IGROV-1 9.2 µM

COC1OC(C)C2OC(C)(C)OC2C1OC(C)=O (stereo unspecified)
inactive: SN12C > 100 µM | RXF 393 39.7 µM | SF-268 > 100 µM | M14 > 100 µM | NCI-H226 > 100 µM | HCC 2998 > 100 µM | DLD-1 > 100 µM | UACC-62 > 100 µM | SW-620 > 100 µM | HL-60 > 100 µM | CAKI-1 > 100 µM | NCI-H460 > 100 µM | HOP-92 > 100 µM | HOP-62 > 100 µM | OVCAR-4 > 100 µM | IGROV-1 > 100 µM

Cc1[nH]c2ccccc2c1C(=O)/C=C/c1ccccc1O
inactive: SN12C > 100 µM | RXF 393 > 100 µM | SF-268 > 100 µM | M14 > 100 µM | NCI-H226 > 10 µM | HCC 2998 > 100 µM | DLD-1 > 100 µM | UACC-62 > 100 µM | SW-620 > 100 µM | HL-60 > 100 µM | CAKI-1 > 100 µM | NCI-H460 > 100 µM | SK-OV-3 > 100 µM | SK-MEL-2 > 100 µM | HOP-62 > 100 µM | OVCAR-4 > 100 µM | EKVX > 100 µM | IGROV-1 > 100 µM

CC(=O)OC[C@@H]1[C@H]2CC(=O)O[C@H]2C[C@H]1OC(C)=O
inactive: SN12C > 100 µM | RXF 393 > 100 µM | SF-268 > 100 µM | M14 > 100 µM | HCC 2998 > 100 µM | DLD-1 > 100 µM | UACC-62 > 100 µM | SW-620 > 100 µM | HL-60 > 100 µM | CAKI-1 > 100 µM | NCI-H460 > 100 µM | SK-OV-3 > 100 µM | HOP-92 > 100 µM | HOP-62 > 100 µM | OVCAR-4 > 100 µM | EKVX > 100 µM | IGROV-1 > 100 µM

C=CCC1(CN(C)C)CC/C(=C\c2ccc(Cl)cc2)C1=O (stereo unspecified)
inactive: SN12C 70.1 µM | RXF 393 31 µM | SF-268 37.8 µM | M14 23.7 µM | NCI-H226 96.8 µM | HCC 2998 33.1 µM | DLD-1 32.1 µM | UACC-62 49.9 µM | SW-620 26.9 µM | HL-60 29.9 µM | CAKI-1 > 100 µM | NCI-H460 20.2 µM | SK-OV-3 > 100 µM | HOP-92 66.8 µM | SK-MEL-2 > 100 µM | HOP-62 > 100 µM | OVCAR-4 31 µM | EKVX 38.9 µM | IGROV-1 29.2 µM

O=C(CC1(O)C(=O)Nc2c(Cl)cc(Cl)cc21)c1ccc(F)cc1 (stereo unspecified)
inactive: SN12C 28.4 µM | RXF 393 27 µM | SF-268 39.6 µM | M14 32.7 µM | NCI-H226 33.3 µM | HCC 2998 40 µM | DLD-1 46.8 µM | UACC-62 35.8 µM | SW-620 43.7 µM | CAKI-1 92 µM | NCI-H460 38.8 µM | SK-OV-3 93.8 µM | HOP-92 47.1 µM | SK-MEL-2 46.8 µM | HOP-62 48 µM | OVCAR-4 27.8 µM | EKVX 68.7 µM | IGROV-1 28.3 µM

Cc1cc(C)nc(NS(=O)(=O)c2ccc(NC(=O)c3cccc4cc5ccccc5nc34)cc2)n1
inactive: SN12C 28.5 µM | RXF 393 23.1 µM | SF-268 16.2 µM | M14 24.2 µM | NCI-H226 23.2 µM | DLD-1 27.5 µM | UACC-62 20 µM | SW-620 32.7 µM | CAKI-1 50.9 µM | NCI-H460 34 µM | SK-OV-3 > 100 µM | SK-MEL-2 30.3 µM | HOP-62 62.7 µM | OVCAR-4 32.8 µM | EKVX 69.8 µM | IGROV-1 35.5 µM

Cc1ccc(/C=N/NS(=O)(=O)c2ccccc2)cc1
inactive: SN12C > 100 µM | RXF 393 > 100 µM | SF-268 > 100 µM | M14 > 100 µM | NCI-H226 > 100 µM | HCC 2998 > 100 µM | DLD-1 > 100 µM | UACC-62 > 100 µM | SW-620 > 100 µM | HL-60 > 100 µM | CAKI-1 > 100 µM | NCI-H460 > 100 µM | SK-OV-3 > 100 µM | HOP-92 > 100 µM | SK-MEL-2 > 100 µM | HOP-62 > 100 µM | OVCAR-4 > 100 µM | EKVX > 100 µM | IGROV-1 > 100 µM

CC1(C)C(O)OC(O)C1(C)C (stereo unspecified)
inactive: SN12C 82.2 µM | RXF 393 32.6 µM | M14 65.2 µM | NCI-H226 18.1 µM | HCC 2998 > 100 µM | DLD-1 52.5 µM | UACC-62 91 µM | SW-620 49.7 µM | HL-60 42.9 µM | CAKI-1 > 100 µM | NCI-H460 > 100 µM | SK-OV-3 > 100 µM | HOP-92 > 100 µM | SK-MEL-2 89.7 µM | HOP-62 > 100 µM | OVCAR-4 > 100 µM | EKVX > 100 µM | IGROV-1 > 100 µM

COC1(C)C(=O)N2C1N(C(=O)OCc1ccccc1)CC2(C)C (stereo unspecified)
inactive: SN12C > 100 µM | RXF 393 > 100 µM | SF-268 > 100 µM | M14 > 100 µM | NCI-H226 > 100 µM | HCC 2998 > 100 µM | DLD-1 > 100 µM | UACC-62 > 100 µM | SW-620 > 100 µM | HL-60 > 100 µM | NCI-H460 > 100 µM | SK-MEL-2 > 100 µM | HOP-62 > 100 µM | OVCAR-4 > 100 µM | EKVX > 100 µM | IGROV-1 > 100 µM

COc1ccc(C(c2ccc(C(C)C)cc(OC)c2=O)c2ccc(C(C)C)cc(OC)c2=O)cc1
inactive: SN12C 16.1 µM | RXF 393 4.15 µM | SF-268 13.6 µM | M14 14.9 µM | NCI-H226 18.1 µM | DLD-1 6.3 µM | UACC-62 14.8 µM | SW-620 15.5 µM | HL-60 12.2 µM | CAKI-1 18.9 µM | NCI-H460 14.6 µM | SK-OV-3 18.4 µM | HOP-92 13.6 µM | SK-MEL-2 15.9 µM | HOP-62 21 µM | OVCAR-4 12.2 µM | EKVX 13.6 µM
